From article PMC11707430, “Novel antibiotics against Staphylococcus aureus without detectable resistance by targeting proton motive force and FtsH” (MedComm, 2025) come the findings set out here.

Test [1] deals with S. aureus. The test can be described thus: MIC determination by microbroth dilution. It is filed as cell-based, Staphylococcus aureus. The conditions noted are these: for antimicrobial activity (in words): structure-activity relationship of C218-0546 analogs (Figure S1). The method, then:
Minimal inhibitory concentration (MIC) determination. The detection of MIC was performed by the microbroth dilution method with reference to the previously report by Wang et al^2. Briefly, the fresh bacterial suspension was adjusted to a McF standard equivalent of 0.5 (~1.5 × 10^8 CFU/mL) and then 100-fold diluted with MH broth. Fifty microliters of bacterial suspension with equal volume of serially diluted compounds (1-128 µg/mL) were added into a 96-well cell plate (Corning Costar, the United States) and incubated at 37°C for 16-18 h. The bacterial suspension without compounds was used as a negative control. The lowest concentration that inhibited visible bacterial growth was considered as the value of MIC.

In test [2] the test system is S. aureus. The test can be described thus: Peritonitis-sepsis model. The conditions noted are these: single use, i.p., 24 h postinfection, vs vehicle. It is filed as in vivo, ICR mice. On the procedure: Peritonitis-sepsis model. Six to seven-week-old female ICR mice were included. […] Mice were injected with 500 μL of the suspension in the presence of 5% mucin by i.p.. An hour post-infection, the mice were administered with: 1) EL+ethanol, 2) […]-0546 (30 mg/kg), and 3) STK848198 (30 mg/kg) alone or in combination with ampicillin (AMP, 25 mg/kg)^38 or amikacin (AMK, 25 mg/kg).

Test [3] concerns S. aureus ATCC 43300. The test can be described thus: Periprosthetic joint infection (PJI) model. It is filed as in vivo, ICR mice. The conditions noted are these: day 7, alone or in combination, i.p.
For test [4], the system named is S. aureus ATCC 43300. The test can be described thus: One-step resistance assay (spontaneous resistance frequency). It is filed as cell-based. The conditions noted are these: 1◊MIC. On the procedure: Resistance inducing assay. Consecutive and one-step resistance experiments were performed to assess the resistance-inducing ability of the compounds against S. aureus. For consecutive resistance assay, the MICs of compounds and ciprofloxacin (CIP) were determined on the first day. […] Subsequently, the equal volume of bacterial suspension was added to the serial concentrations of compounds or CIP into a 96-well plate, the new MICs were recorded every 24h for a total of 15 days. After 15 days of passages, the CIP-induced resistant S. aureus strains were obtained. And the antimicrobial activity of the compounds against the CIP-induced strains were assessed by microdilution assay as described above. For one-step resistance assay, overnight cultured S. aureus was adjusted to a final concentration of approximately OD630=0.5 with sterile saline. One hundred microliters of the bacterial suspension were uniformly spread in pre-prepared MH agar plates containing a specific concentration of compounds. Rifampicin (RFP) was used as a positive control. The viable cells were counted on the plates after incubation at 37°C for 48h. The frequency of spontaneous drug resistance mutation was defined as the ratio of the number of resistant CFU counts to the initial CFU counts^3.

Converted amounts (≈) assume the structure as drawn.

For `Cc1nc2c(C#N)c[nH]n2c(=O)c1Cc1ccccc1` [STK584829], the “antimicrobial activity (in words)” value with S. aureus [1] was “vanished antimicrobial activity”.
Regarding `CC1(C)S[C@@H]2[C@H](NC(=O)[C@H](N)c3ccccc3)C(=O)N2[C@H]1C(=O)O` [AMP, ampicillin, reference compound], the “bacterial loads in organs” value with S. aureus [2] was “no statistical difference”. Further, the “bacterial loads in the joint and its surrounding tissue” value in the test with S. aureus ATCC 43300 [3] is “reduce the bacterial loads”.
As usually defined, the MIC is the lowest concentration that inhibits growth of the organism. With `CCCCCCCCCC(=O)N[C@@H](Cc1c[nH]c2ccccc12)C(=O)N[C@H](CC(N)=O)C(=O)N[C@@H](CC(=O)O)C(=O)N[C@@H]1C(=O)NCC(=O)N[C@@H](CCCN)C(=O)N[C@@H](CC(=O)O)C(=O)N[C@H](C)C(=O)N[C@@H](CC(=O)O)C(=O)NCC(=O)N[C@H](CO)C(=O)N[C@@H]([C@H](C)CC(=O)O)C(=O)N[C@@H](CC(=O)c2ccccc2N)C(=O)O[C@@H]1C` [DAP, daptomycin], the MIC in the test on S. aureus [1] (ATCC 25923) was found to be 1 µg/mL (≈ 0.617 µM); in the test on S. aureus [1] (ATCC 43300), 1 µg/mL (≈ 0.617 µM); in the test on S. aureus [1] (LZB1), 1 µg/mL (≈ 0.617 µM); with S. aureus [1] (Newman), 2 µg/mL (≈ 1.23 µM); against S. aureus [1] (R0645), 2 µg/mL (≈ 1.23 µM); in the test on S. aureus [1] (R82174), 2 µg/mL (≈ 1.23 µM). Further, the minimum inhibitory concentration (MIC) in the test with S. aureus [1] (SA1901) was determined as 1 µg/mL (≈ 0.617 µM); in the test with S. aureus [1] (SA1902), 1 µg/mL (≈ 0.617 µM); against S. aureus [1] (SA1909), 1 µg/mL (≈ 0.617 µM); in the test with S. aureus [1] (SA1910), 1 µg/mL (≈ 0.617 µM); against S. aureus [1] (SA1911), 2 µg/mL (≈ 1.23 µM); with S. aureus [1] (SA1912), 1 µg/mL (≈ 0.617 µM). For the same compound, the MIC with S. aureus [1] (SA1913) turned out to be 1 µg/mL (≈ 0.617 µM); in the test with S. aureus [1] (SA1914) it was 2 µg/mL (≈ 1.23 µM); against S. aureus [1] (SA1915), 1 µg/mL (≈ 0.617 µM); in the test with S. aureus [1] (SAJ1 (VISA)), 32 µg/mL (≈ 19.7 µM); with S. aureus [1] (USA300) it was 1 µg/mL (≈ 0.617 µM).
Consider `Cc1nc2oc3ccccc3c(=O)c2c2nc3ccccc3n12` [STK585953], for which the “antimicrobial activity (in words)” value with S. aureus [1] is “reduce the antimicrobial ability”.
With `CO[C@H]1/C=C/O[C@@]2(C)Oc3c(C)c(O)c4c(O)c(c(/C=N/N5CCN(C)CC5)c(O)c4c3C2=O)NC(=O)/C(C)=C\C=C\[C@H](C)[C@H](O)[C@@H](C)[C@@H](O)[C@@H](C)[C@H](OC(C)=O)[C@@H]1C` [RFP, Rifampicin], the “Spontaneous resistance frequency (mean±SD)” value in the test on S. aureus ATCC 43300 [4] was “(2.83±2.9) ×10^-7”.
Regarding `Cc1ccc(CNC(=O)c2c[nH]n3c(=O)c(Cc4ccc(Cl)cc4)c(C)nc23)cc1` [C218-0468], the “antimicrobial activity (in words)” value in the test with S. aureus [1] is recorded as “did not optimize the MIC values”.
Turning to `CN[C@H](CC(C)C)C(=O)N[C@H]1C(=O)N[C@@H](CC(N)=O)C(=O)N[C@H]2C(=O)N[C@H]3C(=O)N[C@H](C(=O)N[C@H](C(=O)O)c4cc(O)cc(O)c4-c4cc3ccc4O)[C@H](O)c3ccc(c(Cl)c3)Oc3cc2cc(c3O[C@@H]2O[C@H](CO)[C@@H](O)[C@H](O)[C@H]2O[C@H]2C[C@](C)(N)[C@H](O)[C@H](C)O2)Oc2ccc(cc2Cl)[C@H]1O` [VAN, vancomycin], the minimal inhibitory concentration (MIC) came out at 1 µg/mL (≈ 0.69 µM) against S. aureus [1] (ATCC 25923); 1 µg/mL (≈ 0.69 µM) in the test with S. aureus [1] (ATCC 43300); 1 µg/mL (≈ 0.69 µM) in the test with S. aureus [1] (LZB1); 2 µg/mL (≈ 1.38 µM) against S. aureus [1] (Newman); 1 µg/mL (≈ 0.69 µM) against S. aureus [1] (R0645); 1 µg/mL (≈ 0.69 µM) with S. aureus [1] (R82174). For the same compound, the MIC turned out to be 1 µg/mL (≈ 0.69 µM) against S. aureus [1] (SA1901); 0.5 µg/mL (≈ 0.345 µM) in the test on S. aureus [1] (SA1902); 1 µg/mL (≈ 0.69 µM) against S. aureus [1] (SA1909); 1 µg/mL (≈ 0.69 µM) against S. aureus [1] (SA1910); 1 µg/mL (≈ 0.69 µM) against S. aureus [1] (SA1911); 1 µg/mL (≈ 0.69 µM) in the test on S. aureus [1] (SA1912). Also, the MIC was determined as 1 µg/mL (≈ 0.69 µM) against S. aureus [1] (SA1913); 1 µg/mL (≈ 0.69 µM) in the test on S. aureus [1] (SA1914); 1 µg/mL (≈ 0.69 µM) against S. aureus [1] (SA1915); 4 µg/mL (≈ 2.76 µM) in the test with S. aureus [1] (SAJ1 (VISA)); 1 µg/mL (≈ 0.69 µM) with S. aureus [1] (USA300).
